How the values were obtained:
[1] = test system: HTC-C3 (Thyroid Gland Carcinoma); experiment: Bliss excess, mean over the matrix (fraction); higher = more synergy
How it was run: (§1)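 Cell lines grown in DMEM/F12 or RPMI with 10% FBS were plated in 1536-well plates and held 24 hours at 37°C, 5% CO2 before 72 hours of exposure to two-drug dose matrices, with DMSO typically at 0.2%. CellTiter-Glo 2.0 luminescence gave viability, which was converted to inhibition. Vehicle wells were set to 0 and blank wells to 1. Combination Emax is the second-highest inhibition in the matrix, and Bliss excess is the observed combination effect minus the expected EA + EB − EA·EB, where EA and EB are the single-agent effects.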

RT4 (Bladder Carcinoma) [2] = experiment: as above
How it was run: as §1

[3] = test system: AN3-CA (Endometrial Carcinoma); experiment: combination Emax (second highest fraction inhibited in the dose matrix, 72 h); higher = more inhibition; extreme values may be limits of the assay
How it was run: as §1

[4] = test system: BALL-1 (B-Lymphoblastic Leukemia); experiment: as above
How it was run: as §1

[5] = test system: Becker (Low Grade Glioma); experiment: as above
How it was run: as §1

CHL-1 (Melanoma) = experiment: as above
How it was run: as §1

[6] = test system: CML-T1 (Chronic Myelogenous Leukemia); experiment: as above
How it was run: as §1

[7] = test system: Calu-6 (Non-Small Cell Lung Carcinoma); experiment: as above
How it was run: as §1

[8] = test system: HTC-C3 (Thyroid Gland Carcinoma); experiment: as above
How it was run: as §1

[9] = test system: JHH-1 (Hepatocellular Carcinoma); experiment: as above
How it was run: as §1

[10] = test system: LAMA-84 (Chronic Myelogenous Leukemia); experiment: as above
How it was run: as §1

[11] = test system: LOUCY (T-Lymphoblastic Leukemia); experiment: as above
How it was run: as §1

[12] = test system: NCI-H1155 (Non-Small Cell Lung Carcinoma); experiment: as above
How it was run: as §1

[13] = test system: NCI-H1755 (Lung Adenocarcinoma); experiment: as above
How it was run: as §1

[14] = test system: NCI-H196 (Small Cell Lung Carcinoma); experiment: as above
How it was run: as §1

[15] = test system: OCI-AML5 (Acute Myeloid Leukemia); experiment: as above
How it was run: as §1

[16] = test system: OV-90 (Ovarian Carcinoma); experiment: as above
How it was run: as §1

[17] = test system: PC-14 (Lung Adenocarcinoma); experiment: as above
How it was run: as §1

[18] = test system: RL95-2 (Endometrial Carcinoma); experiment: as above
How it was run: as §1

RT4 (Bladder Carcinoma) [19] = experiment: as above
How it was run: as §1
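Wherever Bliss excess, mean over the matrix is given: after 72 h of two-drug dosing.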

SMILES | Bliss excess [1] | Bliss excess (RT4 (Bladder Carcinoma) [2]) | combination Emax [3] | combination Emax [4] | combination Emax [5] | combination Emax (CHL-1 (Melanoma)) | combination Emax [6] | combination Emax [7] | combination Emax [8] | combination Emax [9] | combination Emax [10] | combination Emax [11] | combination Emax [12] | combination Emax [13] | combination Emax [14] | combination Emax [15] | combination Emax [16] | combination Emax [17] | combination Emax [18] | combination Emax (RT4 (Bladder Carcinoma) [19])
CN(C)CCCOc1ccc(-c2ccc3ncc4c(c3c2)n(C2CCOCC2)c(=O)n4C)cn1 [AZD0156] + C=CCn1c(=O)c2cnc(Nc3ccc(N4CCN(C)CC4)cc3)nc2n1-c1cccc(C(C)(C)O)n1 [AZD1775] (first compound max 1 µM, partner max 1 µM) | -0.0187 | -0.0136 | 0.351 | 0.977 | 0.177 | 0.623 | 0.917 | 0.722 | 0.351 | 0.463 | 0.942 | 1 | 0.342 | 0.749 | 0.478 | 0.95 | 0.454 | 0.866 | 0.429 | 0.314
CN(C)CCCOc1ccc(-c2ccc3ncc4c(c3c2)n(C2CCOCC2)c(=O)n4C)cn1 [AZD0156] + CCN(CCO)CCCOc1ccc2c(Nc3cc(CC(=O)Nc4cccc(F)c4)[nH]n3)ncnc2c1 [AZD2811] (first compound max 1 µM, 7x7, partner max 1 µM) | -0.0198 | -0.0063 | 0.27 | 0.634 | 0.0601 | 0.194 | 0.259 | 0.328 | 0.0862 | 0.108 | 0.296 | 0.929 | 0.377 | 0.475 | 0.0373 | 0.963 | 0.143 | 0.202 | 0.557 | 0.349
CN(C)CCCOc1ccc(-c2ccc3ncc4c(c3c2)n(C2CCOCC2)c(=O)n4C)cn1 [AZD0156] + C[C@@H]1COCCN1C2=NC(=NC(=C2)C3(CC3)[S@](=N)(=O)C)C4=C5C=CNC5=NC=C4 [AZD6738] (first compound max 1 µM, 7x7, partner max 10 µM) | 0.0193 | -0.0408 | 0.491 | 0.986 | 0.579 | 0.798 | 0.927 | 0.777 | 0.823 | 0.596 | 0.97 | 1 | 0.748 | 0.816 | 0.292 | 0.917 | 0.437 | 0.828 | 0.551 | 0.411
CN(C)CCCOc1ccc(-c2ccc3ncc4c(c3c2)n(C2CCOCC2)c(=O)n4C)cn1 [AZD0156] + O=C(c1cc(Cc2n[nH]c(=O)c3ccccc23)ccc1F)N1CCN(C(=O)C2CC2)CC1 [Olaparib] (first compound max 3 µM, partner max 3 µM) | -0.0502 | -0.0044 | 0.352 | 0.79 | 0.247 | 0.186 | 0.688 | 0.36 | 0.142 | 0.196 | 0.472 | 0.368 | 0.452 | 0.414 | 0.145 | 0.139 | 0.257 | 0.236 | 0.384 | 0.174
C=CCn1c(=O)c2cnc(Nc3ccc(N4CCN(C)CC4)cc3)nc2n1-c1cccc(C(C)(C)O)n1 [AZD1775] + C1CN(CCC1(C(=O)N[C@@H](CCO)C2=CC=C(C=C2)Cl)N)C3=NC=NC4=C3C=CN4 [Capivasertib] (first compound max 3 µM, partner max 3 µM) | -0.0653 | -0.0355 | 0.905 | 1 | 0.602 | 0.826 | 0.932 | 0.8 | 0.642 | 0.691 | 0.939 | 1 | 0.831 | 0.8 | 0.578 | 0.893 | 0.587 | 0.859 | 0.963 | 0.712
C=CCn1c(=O)c2cnc(Nc3ccc(N4CCN(C)CC4)cc3)nc2n1-c1cccc(C(C)(C)O)n1 [AZD1775] + C[C@@H]1COCCN1C2=NC(=NC(=C2)C3(CC3)[S@](=N)(=O)C)C4=C5C=CNC5=NC=C4 [AZD6738] (first compound max 1 µM, partner max 10 µM) | 0.101 | -0.0068 | 0.714 | 0.988 | 0.678 | 0.84 | 0.971 | 0.808 | 0.882 | 0.642 | 0.993 | 1 | 0.864 | 0.899 | 0.53 | 0.981 | 0.526 | 0.918 | 0.914 | 0.623
C=CCn1c(=O)c2cnc(Nc3ccc(N4CCN(C)CC4)cc3)nc2n1-c1cccc(C(C)(C)O)n1 [AZD1775] + O=C(c1cc(Cc2n[nH]c(=O)c3ccccc23)ccc1F)N1CCN(C(=O)C2CC2)CC1 [Olaparib] (first compound max 1 µM, partner max 10 µM) | -0.0064 | 0.0107 | 0.339 | 0.985 | 0.216 | 0.528 | 0.962 | 0.708 | 0.365 | 0.328 | 0.943 | 1 | 0.454 | 0.832 | 0.536 | 0.953 | 0.559 | 0.887 | 0.486 | 0.283
COc1nnc2ccc(N3CCC(c4ccc(OCCN5CCN(C)C(=O)[C@H]5C)cc4)CC3)nn12 [AZD5153] + CN(CC[C@H](CSC1=CC=CC=C1)NC2=C(C=C(C=C2)S(=O)(=O)NC(=O)C3=CC=C(C=C3)N4CCC(CC4)[C@H](C5=CC=CC=C5C6=CC=C(C=C6)Cl)O)S(=O)(=O)C(F)(F)F)CCO [AZD4320] (first compound max 1 µM, 7x7, partner max 1 µM) | 0.0859 | 0.0826 | 0.255 | 1 | – | – | – | 0.574 | 0.968 | 0.777 | – | – | 0.974 | – | 0.276 | 1 | – | 0.421 | 0.452 | 0.545
Cc1c2c(nn1C)CSCc1cc(n(C)n1)CSc1cc(c3ccccc3c1)OCCCc1c(C(=O)O)n(C)c3c-2c(Cl)ccc13 [AZD5991] + CN(C)CCCOc1ccc(-c2ccc3ncc4c(c3c2)n(C2CCOCC2)c(=O)n4C)cn1 [AZD0156] (first compound max 1 µM, 7x7, partner max 1 µM) | -0.0082 | 0.0149 | 0.404 | 0.606 | 0.141 | – | 0.223 | 0.282 | 0.179 | 0.48 | 0.177 | 0.638 | 0.626 | 0.361 | 0.205 | 1 | 0.209 | 0.236 | 0.977 | 0.289
Cc1c2c(nn1C)CSCc1cc(n(C)n1)CSc1cc(c3ccccc3c1)OCCCc1c(C(=O)O)n(C)c3c-2c(Cl)ccc13 [AZD5991] + Cn1cnc2c(F)c(Nc3ccc(Br)cc3Cl)c(C(=O)NOCCO)cc21 [Selumetinib] (first compound max 1 µM, 7x7, partner max 3 µM) | -0.0271 | 0.0266 | 0.311 | 0.271 | 0.274 | 0.279 | 0.344 | 0.635 | 0.598 | 0.663 | 0.912 | 0.595 | 0.363 | 0.338 | 0.132 | 1 | – | 0.343 | 1 | 0.352
CC(=O)c1c(C)c2cnc(Nc3ccc(N4CCNCC4)cn3)nc2n(C2CCCC2)c1=O [Palbociclib] + CN(CC[C@H](CSC1=CC=CC=C1)NC2=C(C=C(C=C2)S(=O)(=O)NC(=O)C3=CC=C(C=C3)N4CCC(CC4)[C@H](C5=CC=CC=C5C6=CC=C(C=C6)Cl)O)S(=O)(=O)C(F)(F)F)CCO [AZD4320] (first compound max 10 µM, 7x7, partner max 1 µM) | -0.0712 | -0.0409 | 0.709 | 1 | – | – | – | 0.623 | 0.515 | 0.519 | – | – | 0.994 | – | 0.276 | 1 | – | 0.311 | 0.358 | 0.383
CCc1c2c(nc3ccc(O)cc13)-c1cc3c(c(=O)n1C2)COC(=O)[C@]3(O)CC [SN-38] + O=C(c1cc(Cc2n[nH]c(=O)c3ccccc23)ccc1F)N1CCN(C(=O)C2CC2)CC1 [Olaparib] (first compound max 0.3 µM, 7x7, partner max 10 µM) | 0.0591 | 0.0702 | – | 1 | 0.818 | 0.508 | 1 | 0.776 | 0.686 | 0.539 | 0.948 | 0.764 | 0.968 | 0.616 | – | – | 0.553 | 0.696 | – | 0.832
C[C@@H](c1ccc2nccn2c1)n1nnc2ncc(-c3cnn(C)c3)nc21 [Savolitinib] + CN(CC[C@H](CSC1=CC=CC=C1)NC2=C(C=C(C=C2)S(=O)(=O)NC(=O)C3=CC=C(C=C3)N4CCC(CC4)[C@H](C5=CC=CC=C5C6=CC=C(C=C6)Cl)O)S(=O)(=O)C(F)(F)F)CCO [AZD4320] (first compound max 1 µM, 7x7, partner max 1 µM) | -0.0215 | -0.0284 | 0.217 | 1 | – | – | – | 0.414 | 0.282 | 0.356 | – | – | 0.582 | – | 0.2 | 1 | – | 0.173 | 0.167 | 0.376
